Where two headings read alike, the source gives them in different places.
How the values were obtained:
collecting duct APJ = settings: proposed, acting on collecting duct APJ; ref [24]; cited from earlier work
Text: Apela mRNA transcripts appear to be more prevalent during development. They are predominantly expressed in the heart of embryonic rodents and zebrafish, and are also detected in isolated cells from the adult rat heart, and in adult rat and mouse kidney by RT-PCR. The precise renal location of apela gene expression in the kidney has not been reported. Evidence for renal apelin expression is less convincing—it appears to be sparsely distributed in tissue endothelial cells and perhaps vascular epithelial cells and glomeruli. In the rat and ...

microdissected glomeruli = microdissected glomeruli in vitro; ref [22]; cited from earlier work
Text: (§1) The expression of genes for one or both APJ-ligands with their receptor in the same cell, or cells expressing either ligand gene in the close proximity of APJ-expressing cells, raises the possibility of autocrine and/or paracrine actions for the apelinergic system within the heart and kidney. […] Aplnr and apelin appear to be co-localized in endothelial cell ...

renal APJ = settings: cited from earlier work
Text: as §1, with “This depends on apela binding heterogeneous nuclear ribonucleoprotein L (hnRNPL), an inhi ... || The” for “The”

[1] = system: cardiac contractility in adult rodents and humans; settings: in vivo, ref [2],[20],[33],[34],[35]; cited from earlier work
Text: In zebrafish, apela is expressed primarily in the embryonic heart and appears to be the main APJ ligand in ...

APJ = system: APJ; parameters: method as in 3 sources, one per row (each row's own in cited_ref): ref [11],[12] = [11]; PMID 25995451; doi:10.1074/jbc.M115.648238; 11 Deng C , Chen H , Yang N , Feng Y , Hsueh AJW . Apela regulates fluid homeostasis by binding to the APJ receptor to activate Gi signaling . J Biol Chem . 2015; 290 : 18261 – 18268 . doi: 10.1074/j || [12]; PMID 25639753; doi:10.1038/srep08170; 12 Wang Z , Yu D , Wang M , Wang Q , Kouznetsova J , Yang R , et al Elabela-apelin receptor signaling pathway is functional in mammalian systems . Sci Rep . 2015; 5 : 8170 doi: 10.1038/srep08170 2563 ||| ref [2] = [2]; PMID 23943882; doi:10.1530/JOE-13-0227; 2 O’Carroll A-M , Lolait SJ , Harris LE , Pope GR . The apelin receptor APJ: journey from an orphan to a multifaceted regulator of homeostasis . J Endocrinol . 2013; 219 : 13 – 35 . 23943882 10.1530/ ||| ref [11] = [11]; PMID 25995451; doi:10.1074/jbc.M115.648238; 11 Deng C , Chen H , Yang N , Feng Y , Hsueh AJW . Apela regulates fluid homeostasis by binding to the APJ receptor to activate Gi signaling . J Biol Chem . 2015; 290 : 18261 – 18268 . doi: 10.1074/j; settings: cited from earlier work
Text: APJ activation by apelin-13 may involve multiple G proteins, while some actions involving ... || A second endogenous ligand for APJ has recently been discovered. Originally annotated as a long non-coding (nc) RNA (termed Ende) expressed primarily in the definitive endoderm during mouse embryogenesis, the apela (otherwise known as elabela or toddler) gene is also translated. It encodes a predicted 54 (58 in zebrafish) amino acid precursor molecule that is highly conserved across vertebrates and is structurally distinct from the apelin prohormone. The apela precursor can be enzymatically processed into a number of biologically active proteoforms such as ... || APJ was an orphan GPCR [23, 31] until its endogenous ligand apelin was isolated from stomach extracts by ‘reverse pharmacology’ almost 20 years ago [32]. It has recently been proposed that apela, a distinct protein unrelated to apelin, and highly conserved across vertebrates, is a new endogenous ligand for APJ.

[2] = system: GPCR CXCR4 in cultured human umbilical vein endothelial cells; settings: apela stimulation or knockdown, ref [41]; cited from earlier work
Text: as §1

rat APJ = target: T1, rat APJ (Rattus norvegicus, UniProt Q9JHG3); experiment: ERK1/2 activation (ppERK1/2 immunostaining, IN Cell Analyzer) in CHO-B78 cells; format: cell-based; settings: 10min at 37°C
T1 construct: expressed in transfected cells; host or cells: CHO cells, stably transfected clonal line CHO-B78
T1 sequence (Q9JHG3 1-377): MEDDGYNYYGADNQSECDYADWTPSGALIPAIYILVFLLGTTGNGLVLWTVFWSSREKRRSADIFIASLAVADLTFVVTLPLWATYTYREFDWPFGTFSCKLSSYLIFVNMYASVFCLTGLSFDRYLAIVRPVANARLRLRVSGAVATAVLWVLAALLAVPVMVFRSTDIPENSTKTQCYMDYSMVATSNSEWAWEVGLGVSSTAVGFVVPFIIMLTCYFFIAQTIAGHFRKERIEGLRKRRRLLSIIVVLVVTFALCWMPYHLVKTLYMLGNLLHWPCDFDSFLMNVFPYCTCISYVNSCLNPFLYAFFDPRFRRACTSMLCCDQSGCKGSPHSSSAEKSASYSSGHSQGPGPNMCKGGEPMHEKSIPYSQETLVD
Description: Chinese hamster ovary (CHO) cells were transfected with the rat aplnr cDNA (B78 [23]) as previously described [26]. Stably-transfected clonal cells were obtained by limiting dilution, and expression of aplnr was determined by Northern dot blots using two ^32P-dATP-labelled 48bp oligonucleotide specific for the rat aplnr sequence (B78A and B78B [23]; see ISHH below). The highest aplnr-expressing cell clones were expanded for use, and one line (CHO-B78) was used for branched-chain in situ hybridization histochemistry and ERK signal transduction assays (see below).
The nuclear and cytoplasmic fluorescence intensities in individual cells were quantified (in arbitrary units)—data was normalized to vehicle controls after subtraction of ‘no primary antibody’ backgrounds. In each experiment the data (nuclear + cytoplasmic ppERK measurements) is mean ± SEM, n = 6 (approx 1200 cells imaged from 3 wells of a 96-well plate; experiments repeated twice).
IN Cell Analyser 1000 experiments were performed in triplicate wells, with experiments performed at least 2 times. Statistical analysis was with a one-way ANOVA and post hoc Dunnett’s test with GraphPad Prism software (version 4.0b). p<0.05 was considered as statistically significant.
Cells were treated for 10min at 37°C with the indicated concentration of ligands. […]

[3] = system: a number of tissues and cells; parameters: method as in PMID 23943882, PMID 25936916; settings: ref [2],[19]; cited from earlier work
Text: Many questions remain to be explored. For example, does apela in its ncRNA or peptide form(s) contribute to the pathological dispositions of some cardiovascular and metabolic conditions?

[4] = exogenously administered; ref [17]; cited from earlier work
Text: (§2) This depends on apela binding heterogeneous nuclear ribonucleoprotein L (hnRNPL), an inhi ...

[5] = system: human embryonic stem cells (ESCs); settings: which did not express aplnr, ref [18]; cited from earlier work
Text: as §2

apelin-17
effect on antidiuretic action of arginine vasopressin (collecting duct APJ): counteracts the antidiuretic effect of arginine vasopressin
effect on haemodynamic function in glomeruli (microdissected glomeruli): effects haemodynamic function in microdissected glomeruli in vitro
effect on diuresis (renal APJ; intravenous, ref [22]): causes diuresis

apela: second endogenous ligand for APJ; gene encodes a predicted 54 amino acid precursor molecule
effect on cardiac contractility [1]: increase cardiac contractility
ERK activation in APJ-expressing cells (APJ; in vitro, previous studies confirmed by this paper, ref [11]): stimulates ERK activation in APJ-expressing cells in vitro
effect on CXCR4 expression [2]: no effect
ERK activation (stimulation vs basal) (rat APJ; CHO-B78 cells, rat APJ, one-way ANOVA with post hoc Dunnett's test vs vehicle (basal)): activates signal transduction pathways (ERK activation) in cells expressing the cloned rat APJ
effect on diuresis (renal APJ; exogenously administered, ref [11]): promotes diuresis
anti-apoptotic activity [3]: anti-apoptotic activity
effect on food intake [4]: anorexigenic
PI3K/Akt pathway activation [5]: activates the PI3K/Akt pathway
effect on apoptosis [5]: anti-apoptotic

apela-32: rat apela-32 (cyclized, pyroglutamated; Severn Biotech, U.K.) (EKSVNFPRRRKLYRHNCFRRRCISLHSRVPFP; not fully specified; N-terminal pyroglutamate (from Gln1 of the mature peptide))
EC50 (rat APJ; CHO-B78 cells stably transfected with rat aplnr, 0.01-1000nM ligand, serum-starved O/N (0.1% foetal calf serum), whole-cell (nuclear + cytoplasmic) ppERK immunofluorescence, averaged from two separate experiments, triplicate wells, read-out: EC50 for ERK activation): 15.9 nM

apelin
effect on cardiac contractility [1]: increase cardiac contractility
signal transduction pathways activated on binding APJ (APJ; often G protein-dependent, ref [2]): inhibition of adenylate cyclase, stimulation of MAP kinase (ERK) phosphorylation, Akt phosphorylation that could contribute to neuroprotection, and enhancing nitric oxide synthase activity
anti-apoptotic activity [3]: anti-apoptotic activity

Reference: PMC5560558, “Expression and functional implications of the renal apelinergic system in rodents” (PLoS ONE, 2017)
